Laboratory results published in patent US20240150315A1, “BETA-2 ADRENORECEPTOR MODULATORS AND METHODS OF USING SAME” (University of Maryland, Baltimore, priority 2022, published 2024).
Entries after “also recorded” stand apart in the source; their conditions may differ.

How the values were obtained:
human wild type β2AR = target: T1, human wild type β2AR (Homo sapiens, UniProt P07550); experiment: ISO-induced cAMP accumulation (ELISA) in HEK293 cells overexpressing human wild type β2AR; type: cell-based; conditions: AMs 100 nM, different concentrations of ISO
T1 construct: host or cells: HEK293
Text: Activation of β2AR by orthosteric ligands leads to activation of Gαs subunit, which in turn activates AC to hydrolyze ATP to produce cAMP. To determine the biological activity of the AMs of the β2AR, HEK293 cells overexpressing human wild type β2AR were stimulated with different concentrations of test compounds and evaluated for cAMP production using a cAMP ELISA. […] These compounds were used in subsequent studies.
HEK293 cell lines were obtained from the American Type Culture Collection (ATCC) and maintained in Dulbecco's modified Eagle's medium (DMEM) as described previously.
The human β2AR cDNA containing 3-HA tag at N-terminus subcloned into a pcDNA3.1 was obtained from www.cdna.org. […] Mutations were confirmed by DNA sequencing. HEK293 cells were transfected with cDNA expressing (wild type or mutant; see below) human β2AR using Lipofectamine 3000 (Invitrogen, Waltham, MA) and used for studies within 36-48 h, or were maintained in media containing G418 at 500 μg/ml concentration.
(§1) Cells were grown to full confluency in 24-well plates, serum-starved for 24 h, and then incubated with 1 mM IBMX for 10 min. Cells were then incubated with ISO (1 nM to 10 μM) or β2AR modulators alone or concomitantly for 10 min and cAMP levels were measured by ELISA (Life Technologies, Waltham, MA) as described previously.

β2AR [1] = target: T2, β2AR (Homo sapiens, UniProt P07550); experiment: β-arrestin2 recruitment to the β2AR, BRET assay in HEK293 cells; type: cell-based; conditions: AMs 100 nM, increasing concentrations of ISO
T2 construct: expressed in transfected cells; host or cells: HEK293
Protocol: In addition to the canonical Gs signaling, the “balanced” b-agonists induce β-arrestin recruitment to the β2AR resulting in β2AR desensitization and activation of non-canonical signaling such as ERK1/2 signaling. […] Furthermore, the effect of AMs on ISO-induced phosphorylation of ERK1/2 was tested.
β-agonist-induced recruitment of β-arrestin to the β2AR was assessed by BRET assay as described previously. HEK293 cells were transfected with pcDNA-β-arrestin2-GFP10 and pcDNA3-β2AR-RlucII and after 48 h the cells were treated with increasing concentration of ISO and vehicle or 100 nM PAMs or NAMs followed by the addition of Coelenterazine 400a for 20 mins. Change in BRET was measured using a Tecan Infinite F500 microplate reader. BRET ratios were calculated by dividing the intensity of light emitted by the GFP10 acceptor by the total light emitted by the RLucII donor.

[2] = test system: R131K, R131A, Y219F, Y219S, Y219A, F282Y, F282W, and F282A mutant β2ARs; experiment: ISO-induced cAMP generation in HEK293 cells expressing mutant β2AR; type: cell-based, human; conditions: AMs 100 nM, compared with wild-type β2AR
Protocol: To validate the identity of the computationally identified allosteric site, β2AR containing R131K, R131A, Y219F, Y219S, Y219A, F282Y, F282W, and F282A mutations was generated (FIG. 11A). Wild-type and mutant β2AR were expressed in HEK293 cells, and ISO-induced cAMP generation was measured in the presence or absence of the PAM compound 1001, or NAM compounds 1002 and 1003 (FIGS. 11B-E). The compounds were also tested at different concentrations of ISO in the cells expressing mutant β2AR (FIGS. 12A-D). The cAMP response was enhanced in cells expressing R131A and diminished in F282A mutant β2AR compared to cells expressing wild-type β2AR. […] Further, as expected, compound 1001 enhanced ISO-induced cAMP generation in cells expressing wild-type β2AR, and this effect was abolished in cells expressing mutant β2AR (FIGS. 11C-E, FIGS. 12B-D). Furthermore, NAM compounds 1002 and 1003 inhibited ISO-induced cAMP generation in wild-type β2AR expressing cells, and this inhibition was attenuated in cells expressing R131K, R131A, Y219F, Y219S, Y219A, F282Y, F282W, and F282A mutant β2ARs (FIGS. 11C-E, FIGS. 12B-D).
The human β2AR cDNA containing 3-HA tag at N-terminus subcloned into a pcDNA3.1 was obtained from www.cdna.org. Binding site residues PHE(F)282, TYR(Y)219, and ARG(R)131 were mutated to different amino acids using the QuikChange 11 XL Site-Directed Mutagenesis Kit (Agilent, Santa Clara, CA) per manufacturer's protocol. Mutations were confirmed by DNA sequencing. HEK293 cells were transfected with cDNA expressing (wild type or mutant; see below) human β2AR using Lipofectamine 3000 (Invitrogen, Waltham, MA) and used for studies within 36-48 h, or were maintained in media containing G418 at 500 μg/ml concentration. […]
as §1

β2AR [3] = experiment: cell surface ELISA of β2AR expression (receptor internalization) in HEK293 cells; type: cell-based, human; conditions: 15 min; for effect on ISO-induced loss of cell surface expression of wild-type or mutant β2AR: AMs 100 nM with ISO 100 nM
Protocol: ISO induced receptor internalization was assessed via cell surface ELISA as previously described. Briefly, HEK-293 cells expressing β2AR were plated on 24-well plates. Cells were treated with 100 nM ISO with vehicle or 100 nM AMs for 15 minutes. Post treatment, cells were washed and fixed with 10% formalin-buffered saline for 10 minutes on ice, washed twice, and further processed using horseradish peroxidase-conjugated chicken polyclonal anti-HA antibody (Abcam). Cells were washed and incubated with 3,3′,5,5′-tetramethylbenzidine substrate and transferred to a 96-well plate containing sulfuric acid to stop the colorimetric reaction. FlexStation3 was used to measure absorbance at 450 nm. All values were normalized to basal value (no ISO/AMs) of wild-type receptor.

human ASM cells = experiment: collagen gel contraction assay with human ASM cells, histamine-induced contraction; type: cell-based; conditions: 10 μM histamine; for effect on ISO-mediated inhibition of histamine-induced contraction of human ASM cells: AMs 100 nM, 10 min pretreatment
Text: β-agonists are the drug of choice for management of acute bronchoconstriction in asthmatics, acting on the target ASM cells. The Gs-cAMP-protein kinase A signaling axis effected by β-agonists inhibits contraction of ASM cells via multiple mechanisms. Therefore, it was examined whether the modulation of this signaling pathway by the discovered PAM/NAMs translated into functional differences in β2AR control of ASM contraction. In a standard gel-contraction assay, the collagen gels containing human ASM cells were incubated with different concentrations of ISO with vehicle or 100 nM AMs for 10 min, followed by stimulation with 10 μM histamine. The gel images were obtained before and after treatment with different agonists using an EVOS microscope, and a change in the gel area was calculated. Treatment with 10 μM histamine decreased the area of the gels, consistent with contraction of ASM cells. Pretreatment of gels with ISO inhibited the histamine-induced decrease in gel area (FIG. 14A).
100 μl of ASM cell suspension (5×10^5 cells/ml) containing type-I rat tail collagen (1.5 mg/ml) in F-12 medium was seeded onto a 96-well plate. After 24 h, collagen gels were loosened from the plate. The contraction was initiated by adding histamine (10 μM), with or without pretreatment with increasing concentration of ISO, with vehicle or AMs for 10 min prior to histamine. Images were obtained using an EVOS live tissue microscope before and at 10 min intervals for 40 min after the addition of histamine. Gel area was obtained for each of the mages using NIH ImageJ software. Data were expressed as percentage gel contraction and calculated using the following equation. [(T0 gel area−T10 gel area)/T0 gel area×100%].

[4] = test system: human precision-cut lung slices; experiment: bronchodilation of methacholine-contracted human precision-cut lung slices; conditions: for effect on ISO-induced increase in airway lumen area (bronchodilation): 100 nM compound, methacholine 1 μM
Protocol: (§2) To further examine the effect of PAMs and NAMs on β-agonists-mediated regulation of bronchorelaxation in a physiologically-relevant model, human and murine precision-cut lung slices were used. […] Lung slices were treated with increasing concentrations of ISO plus either vehicle or 100 nM of compounds 1001, 1002, and 1003, and a change in airway lumen area was determined.
(§3) FVB mice expressing human β2AR in smooth muscle were used in this study. The protocol for animal experiments is approved by the Institutional Animal Care and Use Committee. Murine lungs were perfused with 4% low melting agarose, allowed to solidify at 4° C. for 1 h. For human airways, a small lobe was inflated with 2% low-melting-point agarose and cores of 8 mm in diameter were made. Both human and murine lungs were then sliced (˜250 μm thick) using an oscillating tissue slicer (OTS-5000, FHC Inc). Lung slices cultured for 48 h were treated with methacholine (MCh, 1 μM), and images of the airways were obtained before and 10 min after MCh stimulation using EVOS FL Auto (Life technologies, Waltham, MA) microscope. The lung slices were treated with ISO (1 nM-10 μM) with vehicle or AMs and images of the airways were captured at 10 min intervals for a total of 50 min. Images of airways were used to calculate the area of airways using Image J software (NIH). Data from lung slice experiments were plotted as a percentage of methacholine-induced decrease in airway area compared to baseline area.

[5] = test system: murine precision-cut lung slices; experiment: bronchodilation of methacholine-contracted murine precision-cut lung slices; design: species or system FVB mice expressing human β2AR in smooth muscle; conditions: for effect on ISO-induced increase in airway lumen area (bronchodilation): 100 nM compound, methacholine 1 μM
Protocol: as §2, §3

mice = experiment: in vivo bronchodilation after MCh-induced bronchoconstriction by flexiVent; conditions: aerosol ISO with compound vs vehicle after MCh
Protocol: Compound 1001 augments isoproterenol (ISO)-induced bronchodilation in mice. Change in methacholine (MCh)-induced bronchoconstriction (lung resistance) upon aerosol treatment of mice with MCh followed by aerosol treatment of mice with ISO with vehicle or compound 1001 using flexiVent (Scireq) method was assessed.
In vivo lung function measurements. Lung mechanics are studied using flexiVent (Scireq) method. Briefly, anesthetized, intubated mice are ventilated with a tidal volume of 250 μl at 150 breaths/min. Mouse airways are exposed to increasing doses of methacholine (MCh; 1.56-50 mg/ml) using an in-line ultrasonic nebulizer. Following MCh-induced bronchoconstriction, mice are aerosolized with increasing concentrations of β-agonists (0.1-20 mg/ml)+AMs (100 nM). Airway resistance (Rn), tissue damping (G), and elastance (H) data (normalized to body weight) at individual doses of agonists are determined using the flexiWare software.

T1 sequence (P07550 whole entry): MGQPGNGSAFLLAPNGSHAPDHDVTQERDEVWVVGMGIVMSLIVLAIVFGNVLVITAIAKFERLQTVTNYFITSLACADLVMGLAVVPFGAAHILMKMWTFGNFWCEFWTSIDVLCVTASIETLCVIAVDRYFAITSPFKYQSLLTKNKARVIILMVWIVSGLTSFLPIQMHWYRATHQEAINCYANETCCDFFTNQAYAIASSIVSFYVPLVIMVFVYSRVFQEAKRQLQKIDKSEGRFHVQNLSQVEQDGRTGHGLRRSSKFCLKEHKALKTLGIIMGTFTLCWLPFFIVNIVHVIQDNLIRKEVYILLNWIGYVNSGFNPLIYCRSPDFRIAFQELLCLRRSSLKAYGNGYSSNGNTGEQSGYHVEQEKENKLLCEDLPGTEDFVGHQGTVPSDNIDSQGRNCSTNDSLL
T2 sequence (P07550 whole entry): as above

SMILES | effect on ISO-induced cAMP accumulation (human wild type β2AR) | effect on ISO-induced β-arrestin2 recruitment to the β2AR (change in BRET) (β2AR [1]) | effect of the modulator on ISO-induced cAMP generation in cells expressing mutant β2AR [2] | effect on ISO-induced loss of cell surface expression of wild-type or mutant β2AR (β2AR [3]) | effect on ISO-mediated inhibition of histamine-induced contraction of human ASM cells (human ASM cells) | effect on ISO-induced increase in airway lumen area (bronchodilation) [4] | effect on ISO-induced increase in airway lumen area (bronchodilation) [5] | cell surface expression of the β2AR (β2AR [3]; ISO 100 nM alone) | histamine-induced decrease in gel area (human ASM cells; ISO pretreatment alone) | airway lumen area (bronchodilation) ([4]; ISO alone) | airway lumen area (bronchodilation) ([5]; ISO alone) | effect on ISO-induced bronchodilation (lung resistance) (mice)
Cc1cnn(-c2cc(N/N=C/c3ccccc3O)ncn2)c1 [compound 1003] | most effective NAMs; also recorded: inhibited | did not alter | attenuated | did not affect | either slightly reduced or had no effect | mitigated | mitigated |  |  |  |  | 
Cc1nc2ccccc2nc1CN1CCN(C2CCCCC2)C(CCO)C1 (centres unmarked) [compound 1002] | most effective NAMs; also recorded: inhibited | did not alter | attenuated | did not affect | either slightly reduced or had no effect | mitigated | mitigated |  |  |  |  | 
CC(C)NCC(O)c1ccc(O)c(O)c1 (centres unmarked) [ISO, isoproterenol, reference compound] |  |  |  |  |  |  |  | loss of cell surface expression | inhibited | dose-dependent increase | dose-dependent increase | 
OCCC1CN(Cc2ccccn2)CCN1C1CCCC1 (centres unmarked) [compound 1001] | most effective PAM; also recorded: enhanced | did not alter | abolished | did not affect | significantly enhanced | significantly enhanced | significantly enhanced |  |  |  |  | augments
